Measurements reported in ChEMBL document CHEMBL1142756, “Total synthesis and antiangiogenic activity of cyclopentane analogues of fumagillol” (Bioorg Med Chem Lett, 2005).
Values after ≈ are worked out from the molar mass of the structure shown.

How the values were obtained:
Type in all cases: functional, cell-based
[1] = Inhibitory concentration against Lymphoma EC4 cells measured for endothelial cell proliferation activity; details: Homo sapiens
[2] = Inhibitory concentration against Calf pulmonary artery endothelial cells (CPAE) measured for endothelial cell proliferation activity; details: Bos taurus
P388 = assay: Inhibitory concentration against Murine leukemia P388 measured for endothelial cell proliferation activity; details: Mus musculus

IC50 (P388)	SMILES	IC50 [1]	IC50 [2]
≥ 10 µg/mL	CO[C@@H]1[C@H](OC(=O)NC(=O)CCl)C[C@]2(CO2)[C@H]1[C@]1(C)O[C@H]1CCC(C)C	1.1 µg/mL (≈ 2.82 µM)	0.57 µg/mL (≈ 1.46 µM)
≥ 10 µg/mL	CO[C@@H]1[C@H](OC(=O)NC(=O)CCl)C[C@]2(CO2)[C@H]1[C@@]1(C)O[C@@H]1CCC(C)C	0.3 µg/mL (≈ 0.769 µM)	0.088 µg/mL (≈ 0.226 µM)
≥ 10 µg/mL	CO[C@@H]1[C@H](OC(=O)/C=C/C=C/C=C/C=C/C(=O)O)CC[C@]2(CO2)[C@H]1[C@@]1(C)OC1CC=C(C)C (single isomer, unassigned) [FUMAGILLIN]	0.0016 µg/mL (≈ 0.00349 µM)	0.003 µg/mL (≈ 0.00654 µM)

SMILES	IC50 (P388)	IC50 [1]	IC50 [2]
CO[C@@H]1[C@H](OC(=O)NC(=O)CCl)CC[C@]2(CO2)[C@H]1[C@@]1(C)OC1CC=C(C)C (single isomer, unassigned) [O-CHLOROACETYLCARBAMOYLFUMAGILLOL]	≥ 10 µg/mL	0.0038 µg/mL (≈ 0.00946 µM)	0.0002 µg/mL (≈ 0.000498 µM)
